Results as given in ChEMBL document CHEMBL1150619, “Minor steroidal alkaloids from the marine sponge Corticium sp” (J Nat Prod, 2002).
In brackets after ≈: the same amount, converted by molar mass.

What was measured:
C6 = assay: Cytotoxicity against rat C6 cells assessed as cell viability after 24 hrs by MTT assay; type: functional, cell-based; settings: C6, 24 h
[1] = Cytotoxicity against mouse RAW264 cells assessed as cell viability after 24 hrs by MTT assay; type: functional, cell-based
[2] = Mus musculus, RAW264.7, 24 h, read-out: IC50

Row | Compound | IC50 (C6) | IC50 [1, 2] | IC50 ([1]; raw264)
1 | CC1=C(/C=C/[C@@H](C)[C@H]2CC[C@H]3C4=CC[C@H]5C(=O)[C@@H](N(C)C)CC[C@]5(C)[C@H]4CC[C@]23C)CCNC1 [PLAKINAMINE H] | 9 µg/mL (≈ 19.4 µM) | 61 µg/mL (≈ 131 µM) | –
2 | CC1=C(/C=C/[C@@H](C)[C@H]2CC[C@H]3C4=CC[C@H]5[C@H](O)[C@H](N)CC[C@]5(C)[C@H]4CC[C@]23C)CCN(C)C1 [4ALPHA-HYDROXYDEMETHYLPLAKINAMINE B] | 26.1 µg/mL (≈ 57.7 µM) | 16.2 µg/mL (≈ 35.8 µM) | –
3 | CC(C)C1=CC(=O)N/C1=C\[C@@H](C)[C@H]1CC[C@H]2C3=CC[C@H]4C[C@H](N)CC[C@]4(C)[C@H]3CC[C@]12C [PLAKINAMINE G] | 6.8 µg/mL (≈ 15.6 µM) | – | Not Active
4 | CC(C)C1CCNC1C[C@@H](C)[C@H]1CC[C@H]2C3=CC[C@H]4C[C@H](N)CC[C@]4(C)[C@H]3CC[C@]12C (stereo partly drawn) [TETRAHYDROPLAKINAMINE A] | 1.4 µg/mL (≈ 3.28 µM) | – | Not Active
